Assay results from ChEMBL document CHEMBL4715913, “Discovery of benzo[f]pyrido[4,3-b][1,4]oxazepin-10-one derivatives as orally available bromodomain and extra-terminal domain (BET) inhibitors with efficacy in an in vivo psoriatic animal model” (Bioorg Med Chem, 2021).
Active and inactive are the calls of the source. The calls are words filed in the database; no cut-off is given here.

Key:
[1] = molecular target: T1, Bromodomain-containing protein 4 (Homo sapiens, UniProt O60885); test: Inhibition of BRD4-BD1 (unknown origin)
[2] = molecular target: T1, Bromodomain-containing protein 4; test: Binding affinity to BRD4-BD1 (unknown origin)
[3] = molecular target: T2, Mitogen-activated protein kinase 7 (Homo sapiens, UniProt Q13164); test: Inhibition of ERK5 (unknown origin)
T2 sequence (Q13164 whole entry): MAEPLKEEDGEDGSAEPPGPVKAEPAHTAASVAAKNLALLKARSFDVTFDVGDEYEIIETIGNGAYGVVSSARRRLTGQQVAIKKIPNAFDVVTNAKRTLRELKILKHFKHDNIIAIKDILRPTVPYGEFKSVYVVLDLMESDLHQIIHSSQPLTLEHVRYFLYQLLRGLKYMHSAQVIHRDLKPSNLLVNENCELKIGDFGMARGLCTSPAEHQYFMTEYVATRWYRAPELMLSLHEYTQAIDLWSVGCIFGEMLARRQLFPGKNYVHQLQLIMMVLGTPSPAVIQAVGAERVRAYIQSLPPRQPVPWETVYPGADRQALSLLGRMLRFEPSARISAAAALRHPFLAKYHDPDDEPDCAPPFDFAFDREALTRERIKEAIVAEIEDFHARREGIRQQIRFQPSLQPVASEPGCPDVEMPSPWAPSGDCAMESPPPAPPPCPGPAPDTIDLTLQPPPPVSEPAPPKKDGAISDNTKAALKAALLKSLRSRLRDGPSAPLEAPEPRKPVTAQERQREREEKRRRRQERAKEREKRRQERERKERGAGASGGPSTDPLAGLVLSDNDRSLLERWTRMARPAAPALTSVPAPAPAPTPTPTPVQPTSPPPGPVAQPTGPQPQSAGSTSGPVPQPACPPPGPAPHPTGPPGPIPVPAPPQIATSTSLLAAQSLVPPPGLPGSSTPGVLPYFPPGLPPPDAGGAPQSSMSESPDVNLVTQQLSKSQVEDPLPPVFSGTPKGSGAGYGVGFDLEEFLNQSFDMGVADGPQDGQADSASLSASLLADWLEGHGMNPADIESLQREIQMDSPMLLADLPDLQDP

[4] = molecular target: T3, Voltage-gated inwardly rectifying potassium channel KCNH2 (Homo sapiens, UniProt Q12809); test: Inhibition of human ERG
T3 sequence (Q12809 whole entry): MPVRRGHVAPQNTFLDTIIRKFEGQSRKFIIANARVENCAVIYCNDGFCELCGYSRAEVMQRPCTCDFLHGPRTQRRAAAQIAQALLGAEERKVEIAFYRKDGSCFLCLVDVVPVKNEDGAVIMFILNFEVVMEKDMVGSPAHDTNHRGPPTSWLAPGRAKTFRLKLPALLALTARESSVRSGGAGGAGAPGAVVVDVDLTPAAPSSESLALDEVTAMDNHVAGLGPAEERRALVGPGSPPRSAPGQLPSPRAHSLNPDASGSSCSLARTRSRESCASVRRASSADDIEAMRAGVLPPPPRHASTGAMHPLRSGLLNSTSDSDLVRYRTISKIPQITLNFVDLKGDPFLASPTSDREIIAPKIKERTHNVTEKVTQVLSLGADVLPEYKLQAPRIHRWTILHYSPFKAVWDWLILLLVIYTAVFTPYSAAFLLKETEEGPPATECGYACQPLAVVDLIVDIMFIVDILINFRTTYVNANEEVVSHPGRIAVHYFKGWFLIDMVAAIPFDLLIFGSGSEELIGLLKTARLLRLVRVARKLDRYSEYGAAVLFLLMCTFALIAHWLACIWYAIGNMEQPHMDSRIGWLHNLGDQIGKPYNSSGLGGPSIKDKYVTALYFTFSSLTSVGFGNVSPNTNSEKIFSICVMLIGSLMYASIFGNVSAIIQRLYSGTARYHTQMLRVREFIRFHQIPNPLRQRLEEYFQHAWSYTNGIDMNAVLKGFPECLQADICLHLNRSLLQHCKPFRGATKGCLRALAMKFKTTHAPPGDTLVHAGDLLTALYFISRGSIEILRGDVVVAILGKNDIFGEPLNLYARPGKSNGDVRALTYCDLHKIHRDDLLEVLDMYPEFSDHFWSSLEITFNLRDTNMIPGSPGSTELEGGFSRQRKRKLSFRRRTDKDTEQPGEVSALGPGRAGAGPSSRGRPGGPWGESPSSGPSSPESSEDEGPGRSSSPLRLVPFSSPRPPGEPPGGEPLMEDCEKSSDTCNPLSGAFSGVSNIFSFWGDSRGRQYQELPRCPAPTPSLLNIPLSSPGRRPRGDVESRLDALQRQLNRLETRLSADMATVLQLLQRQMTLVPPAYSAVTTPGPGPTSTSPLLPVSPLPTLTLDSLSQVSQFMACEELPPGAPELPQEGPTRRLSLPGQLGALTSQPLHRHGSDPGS

[5] = Dissociation constant, pKa of compound; format: physicochemical
PBMC [6] = test: Inhibition of IL-6 production in LPS-induced human PBMC preincubated for 1 hr followed by LPS-stimulation and measured after 20 hrs by magnetic beads technique based assay; format: functional, tissue-based; conditions: time 21.0 hrs
PBMC [7] = test: Inhibition of MCP-1 production in LPS-induced human PBMC preincubated for 1 hr followed by LPS-stimulation and measured after 20 hrs by magnetic beads technique based assay; format: functional, tissue-based; conditions: time 21.0 hrs
[8] = molecular target: T1, Bromodomain-containing protein 4; test: Inhibition of BRD4-BD1 (unknown origin) by TR-FRET assay
[9] = molecular target: T1, Bromodomain-containing protein 4; test: Inhibition of BRD4 in human PBMC assessed as reduction in LPS-induced TNFalpha secretion preincubated for 1 hr followed by LPS-stimulation and measured after 20 hrs by magnetic beads technique based assay
[10] = molecular target: T2, Mitogen-activated protein kinase 7; test: Inhibition of recombinant human ERK5 using myelin basic protein as substrate by [gamm33P]ATP based HotSpot radiometric assay
[11] = Stability of compound in human liver microsomes assessed as parent compound remaining after 1 hr
[12] = molecular target: T3, Voltage-gated inwardly rectifying potassium channel KCNH2; test: Inhibition of human ERG stably expressed in CHO cells at holding potential of -80 mV incubated for 12 mins
Mus musculus = test: Protection against imiquimod-induced Harlan Balb/c mouse model of psoriasis assessed as decrease in ear thickness at 10 mg/kg, po administered BID for 7 days measured on day 8 by dial gauge micrometer analysis; format: functional, organism-based; conditions: time 7.0 day
[13] = Toxicity in imiquimod-induced Harlan Balb/c mouse model of psoriasis assessed as effect on body weight at 10 mg/kg, po BID for 7 days; format: organism-based; conditions: in vivo, 168 h, time 7 day

Compound | IC50 [1] | Kd [2] | IC50 [3] | pKa [5] | IC50 [8] | EC50 [9] | IC50 [10] | remaining at 1 h [11] | IC50 [4] | inhibition (PBMC [6]) | inhibition (PBMC [7]) | IC50 [12] | Activity (Mus musculus) | Activity [13]
CCOc1cc(C(=O)N2CCC(N3CCCC3)CC2)ccc1Nc1cc2c(cn1)N(C)C(=O)c1ccccc1N2C | 1.29 µM | 0.022 µM | 0.011 µM | 9.7 | – | – | – | – | 0.32 µM | Active | Active | – | – | –
CN1C(=O)c2ccccc2N(C)c2cc(N[C@H]3CC[C@@H](O)CC3)ncc21 | – | – | – | – | 6.91 µM | 3.07 µM | 2.23 µM | – | – | Active | Active | – | – | –
CCO[C@@H]1CCCC[C@@H]1Nc1cc2c(cn1)N(C)C(=O)c1ccccc1N2C (relative stereo) | – | – | – | – | 15.4 µM | 2.95 µM | > 10 µM | – | – | Active | Active | – | – | –
CCOc1cc([C@@H](CS(C)(=O)=O)N2C(=O)c3cccc(NC(C)=O)c3C2=O)ccc1OC | – | – | – | – | – | – | – | – | – | – | – | – | Active | Non-Toxic

Further lines, with some results ahead:

IC50 [1] | Kd [2] | IC50 [3] | pKa [5] | IC50 [8] | EC50 [9] | IC50 [10] | remaining at 1 h [11] | Compound | IC50 [4] | inhibition (PBMC [6]) | inhibition (PBMC [7]) | IC50 [12] | Activity (Mus musculus) | Activity [13]
– | – | – | – | > 30 µM | – | – | – | CN1C(=O)c2ccccc2Sc2cc(N[C@H]3CC[C@H](O)CC3)ncc21 | – | Active | Active | – | – | –
– | – | – | – | 11.2 µM | 1.72 µM | 0.393 µM | 114% | CN1C(=O)c2cccc(F)c2Oc2cc(N[C@H]3CC[C@H](O)CC3)ncc21 | – | Active | Active | > 10 µM | – | –
– | – | – | – | 9.37 µM | 2.7 µM | 0.266 µM | 97% | CN1C(=O)c2ccccc2Oc2cc(N[C@H]3CC[C@H](O)CC3)ncc21 | – | Active | Active | > 10 µM | – | –
– | – | – | – | 2.01 µM | 0.43 µM | 0.213 µM | 90% | CN1C(=O)c2c(F)ccc(F)c2Oc2cc(N[C@H]3CC[C@H](O)CC3)ncc21 | – | Active | Active | > 10 µM | – | –
